Laboratory results published in US5698674A, “Triheterocyclic peptides capable of binding the minor and major grooves of DNA” (The Regents of the University of California, priority 1994, dated 1997).
“And” between values parts separate entries of the source, which are not always exact repeats. Equal entries are not always repeated. “Also recorded” adds a separate entry of the source. Where two headings read alike, the source gives them in different places.

Legend:
[1] = tested on: 167 bp EcoRI/RsaI pBR322 restriction fragment; test: DNase I footprint analysis; format: binding
[2] = tested on: .phi.X-174-RF DNA HaeIII restriction digest fragments; test: Electrophoretic mobility shift assay; format: binding; conditions: for RL vs. agent concentration: 1078 bp fragment; for order of effectiveness in increasing the apparent length of DNA fragments: RL values; for change in electrophoretic behavior: 150 μM
[3] = tested on: d(CGCA3 T3 GCG (SEQ ID NO:3))2; test: Dynamics of ligand exchange in the 1:1 complex (ROESY NMR); format: binding; conditions: 10° C
Method: The data matrix was zero filled to 2K and appodized with a gaussian function to give a line broadening of 1 Hz in both frequency domains. The ROESY experiment was recorded at 10° C. using the Kessler pulse sequence (Kessler, H.; Griesinger, C.; Kerssebaum, R.; Wagner, E.: Ernst, R. J Am. Chem. Soc. 1987, 109, 607) with a mixing time of 50 ms and a locking field strength of 2.5 kHz.
The linearity of the NOE build-up with tm was checked for most of the dsDNA proton interactions between 50 and 180 ms and a 5-20 fold increase was found in the NOE volume integrals from the 50 to 180 ms mixing times. The exchange rate (kex) was calculated from eq 3 as follows:
kex =ln((1+R)/2.tau.m (1-R)), s^-1 eq(3) […]
The free energy of activation, ΔG*, for this exchange process at a certain temperature, T (K), was calculated from eq 4 (Gunther, H. "NMR Spectroscopy: An Introduction", John Wiley, New York, 1980, p. 241).
Exchanges between two equivalent binding sites have been proposed for dsDNA complexes of distamycin (Pelton et al., 1990, supra) and netropsin (Patel et al., 1985, supra). If we consider that the exchange is governed by a "flip-flop" mechanism (Pelton et al., 1990, supra) (FIG. 18), not excluding the possible existence of a fast sliding motion of 6b in the minor groove, the rate of exchange can be calculated (Experimental Section).

[4] = tested on: calf thymus topoisomerase I; test: Topoisomerase I inhibition assays (relaxation of supercoiled pBR322); format: biochemical; conditions: for inhibition of topoI relaxation of supercoiled pBR322: agent preincubated with DNA 1 hr before 18 hr topoI reaction, 37° C; for inhibition of topoI after partial relaxation: added after 0.5 hr topoI incubation, then 18 hr
Method: Inhibition of topoI's action on supercoiled pBR322 by 6b was compared to inhibition by Dm and 5b (dien-microgonotropen-b). In the first set of experiments, each agent was allowed to incubate with the DNA for 1 hr prior to the 18 hr topoI reaction period.
In closely related experiments, the mode of inhibition of topoI was examined. This was accomplished by allowing the supercoiled DNA to be partially relaxed for 0.5 hr with topoI before any other DNA ligands were added (FIG. 6).
The buffer for all of the 50 μL reactions was composed of 50 mM Tris-HCl, pH 7.5, 50 mM KCl, 10 mM MgCl2, and 1 mM EDTA that was filtered through a sterile 0.45μ Gelman Sciences Acrodisc. Every reaction mixture contained 1 μg of supercoiled pBR322 plasmid (Pharmacia) and, except for the supercoiled control, every reaction mixture included 10 units of calf thymus topoisomerase I (Bethesda Research Laboratories).
All reactions were extracted twice with water-saturated phenol, extracted once with chloroform, and precipitated with ammonium acetate and ethanol.
The different helical forms of pBR322 created by the relaxation assays were electrophoretically separated through a 4% NuSieve 3:1 (hydroxyethylated) agarose gel (vertical, 0.8 mm) in 40 mM Tris-acetate, pH 8.0 and 1 mM EDTA for 8 hr at 2 V/cm.

[5] = target: d(GGCGCAAATTTGGCGG)(SEQ ID NO:1)/d(CCGCCAAATTTGCGCC)(SEQ ID NO:2); test: Hoechst 33258 (Ht) fluorescence competition, equilibrium association constants with hexadecamer duplex; format: binding; conditions: for log KL1: association constant of first ligand, H2O, 10 mM phosphate buffer, pH 7.0, 10 mM NaCl, 35° C, for Ht = log KHt1, Dm, 2, 5a-c recalculated from previously collected data; for log KL1 / log KL2 / log KHtL: mean ± SD; for log KL1 / log KL2: Ht; for log KL2: association constant of second ligand, for Ht = log KHt2, Dm, 2, 5a-c recalculated; for log KHtL: binding of L to DNA:Ht; for log KL1 KL2: complex association constant
Method: Equilibrium constants for the association of 6a and 6b with oligomeric DNA were assessed by the complexing of tren-microgonotropen-a and -b to the hexadecamer d(GGCGCAAATTTGGCGG)(SEQ ID NO:1)/d(CCGCCAAATTTGCGCC)(SEQ ID NO:2) in aqueous solutions at 35° C. (2.8 mL solutions containing 0.01M phosphate buffer, pH 7.0, and 0.01M NaCl).
These reactions were followed by the competition of the dye Hoechst 33258 (Ht) with 6a and 6b for the A3 T3 minor groove binding site (an extension of Ht alone binding to dsDNA). The concentrations of 6a and 6b were confirmed by ^1 H NMR peak integration of resonances with those of an equivalent concentration of mesitoate.
As shown previously (Browne, K. A.; He, G.-X.; Bruice, T. C. J. Am. Chem. Soc. 1993, 115, 7072), monitoring the increase in fluorescence intensity as the association of Ht with the hexadecamer displaces prebound nonfluorescent ligands is an excellent method for determining equilibrium binding constants. FIG. 17 relates the equilibrium constants for the complexing of one and two Ht species to the hexadecamer with one and two L (where L=6a or 6b) binding to the hexadecamer, plus equilibrium constants for the simultaneous binding of one Ht and one L at the same site. [formula]
Eq 1, derived from FIG. 17, relates each of the equilibrium binding constants, the total fluorescence (Σθ), and [L] in terms of fluorescence (F) and [Ht]. The rationale behind FIG. 17 and the subsequent derivation of eq 1 have been described in considerable detail (Browne, et al., 1993, supra). The values of log KHt1 =7.6 and log KHt2 =9.1 used were determined from a reevaluation of data previously collected (Browne, et al., 1993, supra) and are very close to the previously determined values. A concentration independent static quenching term, Q', is included in eq 1 to account for the lessened fluorescent emission of the DNA:Ht:L complex compared to the DNA:Ht and DNA:Ht2 complexes.
The equilibrium association constants calculated as best fits to the experimental data points for 6a and 6b with eq 1 are presented in Table I. Plots of F vs. [Ht] using these constants at 8.0×10^-9, 1.0×10^-8, and 1.2×10^-8 M ligand and 5.0×10^-9 M in hexadecamer duplex are shown in FIGS. 3a and 3b.
Reagents and methods for DNA binding studies were exactly the same as used previously (He, et al., 1993, supra; Browne, et al., 1993, supra) unless stated otherwise. The values for the equilibrium constants for 2, 5a,b,c, Dm, and Ht were recalculated from previously collected data (Browne, et al., 1993, supra) using the curve fitting program SigmaPlot® 4.1.4 (Jandel Scientific, San Rafael, Calif.). The equilibrium constants for 6a and 6b were calculated with SigmaPlot® 4.1.4 using the reevaluated constants for Ht (KHt1 and KHt2).

[6] = tested on: d(CGCA3 T3 GCG (SEQ ID NO:3))2; conditions: 30° C; Pelton et al., 1990; cited from earlier work
[7] = tested on: d(GGCGCAAATTTGGCGG)(SEQ ID NO:1)/d(CCGCCAAATTTGCGCC)(SEQ ID NO:2); conditions: hexadecamer; Browne et al., 1993; cited from earlier work
mice = conditions: cited from earlier work
[8] = 25 and 50 μM (0.25 and 0.5 ligand/bp DNA)

| Structure (SMILES) | inhibition of DNase I cleavage at the four A+T-rich binding sites ([1]; 5 μM (0.05 ligand/bp DNA)) | inhibition of DNase I cleavage at the four A+T-rich binding sites [1, 8] | RL vs. agent concentration [2] | order of effectiveness in increasing the apparent length of DNA fragments [2] [a^~ 6b>>distamycin>tren] | log KL1 [5] | log KL2 ([5]; pH 7.0, 35° C) | log KHtL ([5]; pH 7.0, 35° C) | log KL1 KL2 ([5]; pH 7.0, 35° C) | change in electrophoretic behavior [2] | other results |
| --- | --- | --- | --- | --- | --- | --- | --- | --- | --- | --- |
| CC(=O)Nc1cc(C(=O)Nc2cc(C(=O)Nc3cc(C(=O)NCCCN(C)C)n(C)c3)n(CCCCNCCN(CCN)CCN)c2)n(C)c1 [Compound 6b] | did not produce detectable inhibition of DNase I cleavage | specific inhibition of cleavage was observed at three of the four sites | quite concentration dependent and sigmoidal in response | 6 | 8.9 ± 0.08 | 9.0 ± 0.2 | 10.3 ± 0.1 | 17.9 | – | electrophoretic mobility of DNA restriction fragments ([2]; increasing concentration 20, 40, 60, 80 μM): the mobility of DNA restriction fragments decreases; activation energy (ΔG*) of exchange [3]: ~ 17 kcal/mol; inhibition of topoI relaxation of supercoiled pBR322 ([4]; 10 μM): the predominant isomer is the fully supercoiled species; inhibition of topoI after partial relaxation ([4]; 30 μM): inhibited topoI even after pBR322 was considerably unwound; inhibition of topoI relaxation of supercoiled pBR322 ([4]; 30 μM): complete inhibition of topoI; KL1 (association constant) ([5]; first ligand, hexadecamer A3T3 site, pH 7.0, 35° C): 7.9e+08 M⁻¹ and 8e+08 M⁻¹; complex equilibrium association constants (KL1 KL2) ([5]; hexadecamer, Table I): 8×10^17 M^-2; quenching of Ht fluorescence ([5]; in DNA:Ht:L complex, from Q'): 36%; KL2 ([5]; second ligand, hexadecamer, pH 7.0, 35° C): 1e+09 M⁻¹ |
| NCCN(CCN)CCN [Tren, tris(2-aminoethyl)amine] | – | – | – | 6 | – | – | – | – | no apparent change in electrophoretic behavior | – |
| Cn1cc(NC(=O)c2cc(NC(=O)c3cc(NC=O)cn3C)cn2C)cc1C(=O)NCCC(=N)N [Dm, Distamycin] | did not produce detectable inhibition of DNase I cleavage | specific inhibition of cleavage was observed at three of the four sites | does not demonstrate very marked changes even at the highest concentrations examined | 6 | 7.6 ± 0.09 | 8.4 ± 0.08 | 8.8 ± 0.09 | 16.0 | smaller changes at 150 μM (0.66 ligand/bp) than 6a or 6b at 40 μM | enhancements in or increased rates of DNase I cleavage at specific sequences ([1]; highest concentrations, 5'- and 3'-labeled fragments): showed enhancements similar to those found previously; rate constant for exchange [6]: 0.2 s⁻¹; equilibrium constant for 1:1 complex formation [7]: 4e+07 M⁻¹; inhibition of topoI after partial relaxation ([4]; 150 μM): no effect; inhibition of topoI relaxation of supercoiled pBR322 ([4]; 150 μM): only partially inhibited; also recorded: partial inhibition; LD50 (mice; i.p.): 500 mg/kg; LD50 (mice; i.v.): 75 mg/kg |
| CN1CCN(c2ccc3[nH]c(-c4ccc5[nH]c(-c6ccc(O)cc6)nc5c4)nc3c2)CC1 [Ht, Hoechst 33258] | – | – | – | – | 7.6 and 7.6 ± 0.1 | 9.1 and 9.1 ± 0.2 | – | – | – | – |
